The target in the experiment is T1, HIV six-helix bundle of gp41 (IQN36 / C34) (Human immunodeficiency virus type 1 group M subtype B, UniProt P04578).
T1 construct: made in house; host or cells: chemical peptide synthesis, no expression host
In words: HIV-FRET IQN36/C34 homogeneous time resolved fluorescence test system (6-helix bundle formation). Format: binding, Human Immunodeficiency Virus (HIV-1). As for the experimental part:
All reagents were dissolved in 100 mM Hepes buffer pH 7.2. Test compounds were serially diluted and then added to 384-well plates. A final concentration of 10 nM S-APC and 100 nM IQN36-biotin were mixed in tubes, incubated for 30 min at room temperature and then added to well containing test compound. The compound/S-APC/IQN36-biotin mixture was incubated for another 2 hours at room temperature.

Ends that are not written are not given here.

As usually defined, the IC50 is the midpoint of a concentration-inhibition curve. A higher IC50 goes with weaker potency in that assay.

`COC(=O)c1cc(Cc2cc(Cc3ccc(NS(=O)(=O)c4ccc(C)cc4)c(C(=O)O)c3)cc(C(=O)O)c2NS(=O)(=O)c2ccc(C)cc2)ccc1NS(=O)(=O)c1ccc(C)cc1` [Compound 1] displayed a 50% inhibitory concentration (IC50) of 3270 nM. This lies in the single-digit micromolar range.
Then `Cc1ccc(S(=O)(=O)Nc2ccc(Oc3ccc(NS(=O)(=O)c4ccc(C)cc4)c(C(=O)O)c3)cc2OCc2ccccc2)cc1` [Compound 2, 5-[3-Benzyloxy-4-(toluene-4-sulfonylamino)-phenoxy]-2-(toluene-4-sulfonylamino)-benzoic acid], with 2720 nM; and `Cc1ccc(S(=O)(=O)Nc2ccc(Oc3ccc4c(c3)CCCN4S(=O)(=O)c3ccc(C)cc3)cc2C(=O)O)cc1` [Compound 3, 2-(4-methylphenylsulfonamino)-5-[1-(toluene-4-sulfonyl)-1,2,3,4-tetrahydro-quinolin-6-yloxy]-benzoic acid], with 2880 nM.
`CCCCCCN(c1ccc(Oc2ccc(NS(=O)(=O)c3ccc(C)cc3)c(C(=O)O)c2)cc1)S(=O)(=O)c1ccc(C)cc1` [Compound 4, 5-{4-[Hexyl-(toluene-4-sulfonyl)-amino]-phenoxy}-2-(4-methylphenylsulfonamino)-benzoic acid] registered a half-maximal inhibitory concentration (IC50) of 4450 nM. Against the preceding compound, the IC50 is about 1.5-fold higher.
In turn, `CCCCCOc1cc(Oc2ccc(NS(=O)(=O)c3ccc(C)cc3)c(C(=O)O)c2)ccc1NS(=O)(=O)c1ccc(C)cc1` [Compound 5, 5-[3-pentyloxy-4-(toluene-4-sulfonylamino)-phenoxy]-2-(toluene-4-sulfonylamino)-benzoic acid] yielded a concentration for half-maximal inhibition (IC50) of 3480 nM.
The compound `Cc1ccc(S(=O)(=O)Nc2ccc(Oc3ccc(NS(=O)(=O)c4ccc(C)cc4)c(-c4ccccc4)c3)cc2C(=O)O)cc1` [Compound 6, 2-(Toluene-4-sulfonylamino)-5-[6-(toluene-4-sulfonylamino)-biphenyl-3-yloxy]-benzoic acid] registered a concentration for half-maximal inhibition (IC50) of 3160 nM.
Under `Cc1ccc(S(=O)(=O)Nc2ccc(Oc3ccc(NS(=O)(=O)c4ccc(C)cc4)c(C(=O)O)c3)cc2OCC(C)C)cc1` [Compound 7, 5-[3-Isobutoxy-4-(toluene-4-sulfonylamino)-phenoxy]-2-(toluene-4-sulfonylamino)-benzoic acid] stands 3270 nM.
Then `Cc1ccc(S(=O)(=O)Nc2ccc(Oc3ccc(NS(=O)(=O)c4ccc(C)cc4)c(C(=O)O)c3)cc2NCc2ccccc2)cc1` [Compound 8, 5-[3-Benzylamino-4-(toluene-4-sulfonylamino)-phenoxy]-2-(toluene-4-sulfonylamino)-benzoic acid], with 2270 nM; and `CCCCNc1cc(Oc2ccc(NS(=O)(=O)c3ccc(C)cc3)c(C(=O)O)c2)ccc1NS(=O)(=O)c1ccc(C)cc1` [Compound 9, 5-[3-Butylamino-4-(toluene-4-sulfonylamino)-phenoxy]-2-(toluene-4-sulfonylamino)-benzoic acid], with 1810 nM; and `Cc1ccc(S(=O)(=O)Nc2ccc(Oc3ccc(NS(=O)(=O)c4ccc(C)cc4)c(N(C)Cc4ccccc4)c3)cc2C(=O)O)cc1` [Compound 10, 5-[3-(Benzyl-methyl-amino)-4-(toluene-4-sulfonylamino)-phenoxy]-2-(toluene-4-sulfonylamino)-benzoic acid], with 2640 nM.
Then `CCNc1cc(Oc2ccc(NS(=O)(=O)c3ccc(C)cc3)c(C(=O)O)c2)ccc1NS(=O)(=O)c1ccc(C)cc1` [Compound 11, 5-[3-Ethylamino-4-(toluene-4-sulfonylamino)-phenoxy]-2-(toluene-4-sulfonylamino)-benzoic acid], with 2470 nM; and `Cc1ccc(S(=O)(=O)Nc2ccc(Oc3ccc(NS(=O)(=O)c4ccc(C)cc4)c(C(=O)O)c3)cc2Cc2ccccc2)cc1` [Compound 12, 5-[3-Benzyl-4-(toluene-4-sulfonylamino)-phenoxy]-2-(toluene-4-sulfonylamino)-benzoic acid], with 2090 nM; and `CNc1cc(Oc2ccc(NS(=O)(=O)c3ccc(C)cc3)c(C(=O)O)c2)ccc1NS(=O)(=O)c1ccc(C)cc1` [Compound 13, 5-[3-Methylamino-4-(toluene-4-sulfonylamino)-phenoxy]-2-(toluene-4-sulfonylamino)-benzoic acid], with 2690 nM.
With “NFYDPLVFPSDEFDASISQVNEKINQSLAFIRKSDELLHNVNAGK [Compound C45, reference compound]”, the concentration for half-maximal inhibition (IC50) is more than 10000 nM.

The values are drawn from patent US20100280268A1, “H[…] RESOLVED FL[…] TEST SYSTEM” (priority 2006, published 2010).
